Reference: ChEMBL document CHEMBL1134029, “Heterocyclic derivatives of 2-(3,5-dimethylphenyl)tryptamine as GnRH receptor antagonists” (Bioorg Med Chem Lett, 2001)
pIC50: −log10 of the molar value.

target: T1, Gonadotropin-releasing hormone receptor (Rattus norvegicus, UniProt P30969); assay: Inhibition of rat gonadotropin-releasing hormone receptor
T1 sequence (P30969 whole entry): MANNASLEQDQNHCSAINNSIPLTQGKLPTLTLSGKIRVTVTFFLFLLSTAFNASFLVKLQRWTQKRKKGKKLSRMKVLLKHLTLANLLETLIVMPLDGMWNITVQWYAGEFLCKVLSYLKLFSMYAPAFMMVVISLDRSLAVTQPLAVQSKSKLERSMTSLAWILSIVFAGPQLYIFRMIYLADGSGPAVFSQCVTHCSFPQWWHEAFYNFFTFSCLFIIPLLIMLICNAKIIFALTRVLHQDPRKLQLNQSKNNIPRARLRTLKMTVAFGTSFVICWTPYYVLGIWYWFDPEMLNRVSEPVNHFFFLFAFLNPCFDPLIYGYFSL

Structure (SMILES)	pIC50
Cc1cc(C)cc(-c2[nH]c3ccccc3c2CCNCCCc2cccnc2)c1	6.70
Cc1cc(C)cc(-c2[nH]c3ccccc3c2CCNCCCCc2ccccn2)c1	6.35
Cc1cc(C)cc(-c2[nH]c3ccccc3c2CCNCc2ccncc2)c1	5.05
CC(=O)Nc1ccc(CCCCNCCc2c(-c3cc(C)cc(C)c3)[nH]c3ccccc23)cn1	6.92
Cc1cc(C)cc(-c2[nH]c3ccccc3c2CCNCCCCc2cnc[nH]2)c1	6.35
Cc1cc(C)cc(-c2[nH]c3ccccc3c2CCNCCCCCc2ccncc2)c1	6.82
Cc1cc(C)cc(-c2[nH]c3ccccc3c2CCNCCc2cccnc2)c1	6.70
Cc1cc(C)cc(-c2[nH]c3ccccc3c2CCNCc2cccnc2)c1	5.35
Cc1cc(C)cc(-c2[nH]c3ccccc3c2CCNCCCCc2ccc3c(n2)NCCC3)c1	5.90
Cc1cc(C)cc(-c2[nH]c3ccccc3c2CCNCCc2ccccn2)c1	5.66
Cc1cc(C)cc(-c2[nH]c3ccccc3c2CCNCCCc2ccncc2)c1	6.68
Cc1cc(C)cc(-c2[nH]c3ccccc3c2CCNCc2ccccn2)c1	< 5.00
Cc1cc(C)cc(-c2[nH]c3ccccc3c2CCNCCc2ccncc2)c1	6.80
Cc1cc(C)cc(-c2[nH]c3ccccc3c2CCNCCCCc2cncnc2)c1	6.57

Now those with a higher pIC50, led by results:

pIC50	Structure (SMILES)
7.05	COc1ccc(CCCCNCCc2c(-c3cc(C)cc(C)c3)[nH]c3ccccc23)cn1
7.24	Cc1cc(C)cc(-c2[nH]c3ccccc3c2CCNCCCCc2ccc(=O)[nH]c2)c1
7.30	Cc1cc(C)cc(-c2[nH]c3ccccc3c2CCNCCCCCc2cccnc2)c1
7.35	Cc1cc(C)cc(-c2[nH]c3ccccc3c2CCNCCCCc2ccc(NS(C)(=O)=O)nc2)c1
7.39	Cc1cc(C)cc(-c2[nH]c3ccccc3c2CCNCCCCc2ccc(N)nc2)c1
7.40	Cc1cc(C)cc(-c2[nH]c3ccccc3c2CCNCCCCc2cccnc2)c1
7.44	Cc1cc(C)cc(-c2[nH]c3ccccc3c2CCNCCCCc2cnc3ccccc3c2)c1
7.57	Cc1cc(C)cc(-c2[nH]c3ccccc3c2CCNCCCCc2ccc(O)cc2)c1
7.80	Cc1cc(C)cc(-c2[nH]c3ccccc3c2CCNCCCCc2ccncc2)c1
8.15	Cc1cc(C)cc(-c2[nH]c3ccccc3c2CCNCCCCc2ccc(NS(C)(=O)=O)cc2)c1

target: T2, Gonadotropin-releasing hormone receptor (Homo sapiens, UniProt P30968); assay: Inhibitory activity evaluated against human Gonadotropin-releasing hormone receptor
T2 sequence (P30968 whole entry): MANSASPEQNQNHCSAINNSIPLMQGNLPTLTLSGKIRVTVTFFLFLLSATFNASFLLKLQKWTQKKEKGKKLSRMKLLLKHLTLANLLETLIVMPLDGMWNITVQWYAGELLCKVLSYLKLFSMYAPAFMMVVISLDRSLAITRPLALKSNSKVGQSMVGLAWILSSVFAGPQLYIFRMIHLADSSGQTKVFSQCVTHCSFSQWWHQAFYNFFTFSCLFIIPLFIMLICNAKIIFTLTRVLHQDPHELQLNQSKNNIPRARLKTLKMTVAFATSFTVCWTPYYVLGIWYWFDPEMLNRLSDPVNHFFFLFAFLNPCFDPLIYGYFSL

pIC50	Structure (SMILES)
6.45	Cc1cc(C)cc(-c2[nH]c3ccccc3c2CCNCCCCc2ccc(O)cc2)c1
6.77	Cc1cc(C)cc(-c2[nH]c3ccccc3c2CCNCCCCc2ccc(NS(C)(=O)=O)cc2)c1
